Test results published in patent publication US20260272936A1, “TREATMENT OF CANCER WITH A PARG INHIBITOR” (858 Therapeutics, Inc., priority 2023, published 2026).

What was measured:
[1] = system: T026OV ovarian cancer patient-derived organoid; experiment: 7-day organoid colony formation, ATP content (Cell Titer Glo 3D); format: cell-based, human; conditions: T026OV PDO, 7 days
Text: The FU-97 (Cat #JCRB1074) human gastric cancer cell line and the Kuramochi (Cat #JCRB0098) and RMUG-S(Cat #IFO50320) human ovarian cancer cell lines were obtained from the National Institutes of Biomedical Innovation, Health and Nutrition's Japanese Collection of Research Bioresources (JCRB) (Ibaraki City, Osaka, Japan). The HCC1419 (Cat #CRL-2326) and HCC1428 (Cat #CRL-2327) human breast cancer cell lines and the NCI-H1650 (Cat #CRL-5883) and NCI-H1792 (Cat #CRL-5895) non-small cell lung cancer cell lines were obtained from ATCC (Manassas, Virginia, USA). The human gastric cancer cell lines GCIY (Cat #RCB0555) and SNU601 (Cat #CSC-C9686L) were obtained from the Riken Bioresource Research Center (Tsukuba, Ibaraki, Japan) and Creative Bioarray (Shirley, NY, USA), respectively. The T025OV ovarian cancer organoid model was developed from a patient-derived xenograft (PDX) model, which was developed from primary serous ovarian carcinoma cells obtained from Discovery Life Sciences (Huntsville, AL, USA, SN #350627149). T026OV organoids were developed from PDX cells obtained from The Jackson Laboratory (Bar Harbor, ME, USA, Cat #TM00335).
T025OV and T026OV PDOs were cultured in PDO complete media on a thin layer of growth-factor reduced Matrigel (Corning, Glendale, AZ, USA Cat #356231). […]
Compound 1 IC50 values for inhibition of organoid colony formation were determined by measuring ATP levels after 7 days of treatment utilizing Cell Titer Glo 3D reagent (Promega, Madison, WI, USA Cat #G9683). […] Luminescence values (RLU) were read-out using a Clariostar plate reader (BMG Labtech, Cary, NC). […]

[2] = system: HCC1428 breast cancer xenograft; conditions: monotherapy or in combinations
Experimental: The CDX model was established by subcutaneous inoculation of HCC1428 cells into the right flank of BALB/c nude mice. Mice were injected subcutaneously with estradiol benzoate one day prior to cell inoculation and then twice per week thereafter to promote optimal growth of the ER^+ cell line. Groups of 9 animals each were established by random assignment. Tumor volumes and body weights were measured twice weekly. Tumor volume and percent tumor growth inhibition (TGI) or percent tumor regression (REG) were calculated as described in Example 4A. End-of-study Day […] TGI or REG was calculated relative to the Day 25 mean TV from the vehicle group. Statistical analysis of the Day 25 tumor volumes was performed using the Brown-Forsythe and Welch ANOVA test.
Compound treatment was initiated when the mean tumor volume of each group was 184 mm^3. Compound 1 was administered to mice orally for 25 days once daily (QD) at a dose of 100 mg/kg based on body weight. Abemaciclib was administered orally at a dose of 30 mg/kg QD for 25 days based on body weight and fulvestrant was administered subcutaneously at a dose of 5 mg/mouse once per week (QW). Following the dosing period of 25 days, an observation period was conducted for Group 5 (Compound 1+abemaciclib), Group 7 (abemaciclib+fulvestrant), and Group 8 (Compound 1+abemaciclib+fulvestrant) with continued twice weekly measurement of tumor volume and body weight measurements but no additional administration of compound.

In the case of `[2H]C([2H])(c1cnn(C)c1)N1C(=O)c2cc(S(=O)(=O)NC3(C)CC3)ccc2N2C1=NC[C@H]2C` [Compound 1, (R)-1-methyl-4-((1-methyl-1H-pyrazol-4-yl)methyl-d2)-N-(1-methylcyclopropyl)-5-oxo-1,2,4,5-tetrahydroimidazo[1,2-a]quinazoline-7-sulfonamide], the IC50 ([1]; Homo sapiens, 168 h, geometric mean, read-out: IC50 inhibition of ATP content) is reported as 0.213 µM, the IC90 ([1]; Homo sapiens, 168 h, geometric mean, read-out: IC90 inhibition of ATP content) is reported as 0.567 µM and the “maximum reduction in cellular ATP content” value [1] is reported as “approximately 50%”. For the same molecule, the tolerability [2] was “well tolerated”.
